Measurements as given in patent US20200291082A1, “PREVENTION AND TREATMENT OF GRAFT-VERSUS-HOST-DISEASE WITH DEFENSINS” (priority 2017, published 2020).

Tests used:
[1] = system: house dust mite model of allergic asthma; test: therapeutic intranasal versus oral hBD2 in murine house dust mite model of allergic asthma (Example 10); type: in vivo, BALB/c mice; settings: dexamethasone 1 mg/kg BID oral; hBD2 both IN doses (0.4 mg/kg/day TID and 1.7 mg/kg/day TID)
Protocol: To determine and assess the efficacy of IN versus oral therapeutic intervention with defensins in a murine house dust mite model of allergic asthma.
Treatment regime: Female 7-10 weeks old BALB/c mice were randomly allocated into 7 study groups one day prior to study start and subcutaneously (SC) sensitized to house dust mite (100 μg HDM in 200 μL saline plus Freund's complete adjuvant in 0.9% saline). Mice were then intranasally (IN) challenged with HDM on day 14 (HDM 25 μg in 50 μL of saline). Dexamethasone was administered orally (1 mg/kg BID; 50 μL phosphate buffered saline (PBS)) on day 14. hBD2 was administered IN or orally (1.7 mg/kg TID IN; 0.4 mg/kg TID IN; 0.4 mg/kg TID orally, 50 μL phosphate buffered saline) on day 14. The initial dose was administered 60 minutes prior to challenge, and the subsequent doses approximately 6 hours apart (FIG. 5).
Airway inflammation: At 48 hours post challenge, bronchoalveolar lavage was performed washing the lungs with 3 volumes of cold PBS (0.4; 0.3 and 0.3 mL, total 1 mL). Total and differential leucocyte cell counts were determined on an automated haematological analyser Sysmex XT-2000iV.
Data are represented as airway resistance at […] methacholine and as dose responsive curves.
Lung sampling for cytokine analysis: After completion of every BAL, lungs were removed from the thorax, snap frozen in liquid nitrogen and stored frozen at −80 degrees Celsius until analysis of cytokine concentration of IL-1β, TNF-α, IL-6, IL-10 and IFNγ by ELISA.

[2] = system: Dextran Sodium Sulphate induced colitis; test: prophylactic murine 10-day oral Dextran Sodium Sulphate induced colitis model, oral hBD2 versus oral prednisolone (Example 2); type: in vivo, C57BL/6 mice; settings: versus vehicle; Prednisolone 1 mg/kg twice per day p.o.; oral hBD2 all doses
Protocol: Anti-inflammatory effect of oral administration of hBD2 versus oral prednisolone in a prophylactic murine, 10-day, oral Dextran Sodium Sulphate induced colitis model.
50 male C57BL/6 mice housed in groups of five per cage were allocated to 5 different treatment groups. All animals had their drinking water supplemented with DSS 2% for 7 days to induce colitis resulting in significant inflammation and injury of the colonic tissue. The animals were treated with oral hBD2 dosed at three different dose levels twice per day or prednisolone 1 mg/kg twice per day or PBS as vehicle for 10 days.
(§1) A disease activity index (DAI) scoring system was applied for clinical assessment (FIG. 7). The animals were sacrificed on day 10 and colon removed for histological assessment employing a histological scoring system (FIG. 8).

[3] = system: Trinitrobenzene Sulfonic Acid induced colitis; test: prophylactic murine 8-day Trinitrobenzene Sulfonic Acid induced colitis model (Example 3); type: in vivo, BALB/cByJ mice; settings: Prednisolone 10 mg/kg s.c. once daily; hBD2 at 0.1, 0.3 and 1 mg/kg s.c. once daily
Protocol: Anti-inflammatory effect of s.c. administration of hBD2 versus s.c. prednisolone in a prophylactic murine, 8-day Trinitrobenzene Sulfonic Acid induced colitis model.
105 male BALB/cByJ mice housed in groups of five per cage were allocated to 7 different treatment groups. Colitis was induced by intracolonic administration of trinitrobenzene sulfonic acid on day 0 under light anaesthesia resulting in significant inflammation and injury of the colonic tissue. The animals were treated with hBD2 at four different dosing levels once daily (1 mg/kg, 0.3 mg/kg, 0.1 mg/kg, and 0.03 mg/kg) or Prednisolone 10 mg/kg once daily dosed subcutaneously under the dorsal skin or PBS as vehicle for 7 days.
as §1

[4] = system: CD4+CD25+ Tcell transfer induced colitis; test: therapeutic murine 14 weeks CD4+CD25+ Tcell transfer induced colitis model (Example 6); type: in vivo, SCID mice; settings: hBD2 1 mg/kg s.c. OD, Dexamethasone 0.3 mg/kg i.p. OD, Enbrel 100 μg/mouse s.c. twice weekly
Excerpt: Efficacy of s.c. administration of hBD2 versus s.c. anti TNF-α (Enbrel) and intraperitoneal dexamethasone in a therapeutic, murine, 14 weeks, CD4+CD25+ Tcell transfer induced colitis model.
70 female BALB/c mice housed in groups of five per cage were allocated to 7 different treatment groups. Colitis was induced in SCID mice by transplantation of CD4+CD25+ Tcells from BALB/c mice. Lymphocytes isolated from spleen and lymph nodes from BALB/c mice were subjected to negative selection of CD4+ Tcells. Afterwards, CD4+CD25+ cells were positively isolated by binding to the beads from the CD4+ Tcell suspensions and the CD4+CD25− were collected from the supernatant. The animals were treated with hBD2, 0.1 mg/kg s.c. OD; 1 mg/kg s.c. OD or 3 mg/kg s.c. OD or with mouse anti TNFα 100 μg/mouse s.c. twice weekly or with dexamethasone 0.3 mg/kg intraperitoneally OD or PBS s.c. as vehicle from day 7 and 86 consecutive days.
Clinical assessment was based on body weight loss, stool consistency and presence of blood per rectum. The animals were sacrificed on day 95 and colon removed for assessment of weight and myeloperoxidase activity.

[5] = system: gut microbiota in high fat diet murine model; test: prophylactic treatment with defensins in murine high fat diet model, gut microbiota (Example 7); type: in vivo, mice
Excerpt: Protection and preservation of gut microbiota by prophylactic treatment with defensins. Mice: Mice were housed in trios, 4 cages per group. Feed intake was registered daily just before lights were turned off at 6 pm. Individual mice were subjected to experimental procedures in altered order both group and cage wise. Mice were kept at room temperature under a 12-hour light/dark cycle at SPF standard conditions. Diets: For dosing, the average weight was estimated to be 25 grams per mouse. Mice eat approximately 3 grams of feed per mouse per day. Treatment regime: Mice were fed either a high fat diet (HFD) or a low fat (LF) control diet. The HFD contained 4 subgroups; 1 hBD2, 1 HD5, 1 hBD2/HD5 and 1 standard HFD without supplementation of defensins (FIG. 3). Defensin concentration was 1,2 mg hBD2 per kg mouse per day. HD5 was given in equimolar concentration to hBD2. […] Microbial analyses were carried out to study the microbiota of the intestine. Longitudinal 16S characterization was conducted on 4 paired samples from 60 mice, 240 samples in total. Each mouse was sampled prior to diet change, 1 week post diet change, 4 weeks post diet change and at termination, thus ensuring a thorough characterization of the faecal microbiota as a result of defensin treatment.

[6] = system: bacteria at the surface of the intestinal mucosa; test: anti microbial effect of orally administered defensins, mucin immunostaining and localization of bacteria by FISH (Example 16); type: in vivo; settings: compared with mice on low fat or western diet
Protocol: Anti microbial effect of orally administered defensins (HD5 and hBD-2).
Mucus immunostaining was paired with fluorescent in situ hybridization (FISH), as previously described in order to analyze bacteria localization at the surface of the intestinal mucosa. Briefly, colonic tissues (proximal colon, 2nd cm from the cecum) without fecal material were placed in methanol-Carnoy's fixative solution (60% methanol, 30% chloroform, 10% glacial acetic acid) for a minimum of 3 hours at room temperature. Tissues were then washed in methanol 2×30 min, ethanol 2×15 min, ethanol/xylene (1:1), 15 min and xylene 2×15 min, followed by embedding in Paraffin with a vertical orientation. Five pm sections were performed and dewax by preheating at 60° C. for 10 min, followed by xylene 60° C. for 10 min, xylene for 10 min and 99.5% ethanol for 10 minutes. Hybridization step was performed at 50° C. overnight with EUB338 probe (5′-GCTGCCTCCCGTAGGAGT-3′, with a 5′ labeling using Alexa 647) diluted to a final concentration of 10 μg/mL in hybridization buffer (20 mM Tris-HCl, pH 7.4, 0.9 M NaCl, 0.1% SDS, 20% formamide). After washing 10 min in wash buffer (20 mM Tris-HCl, pH 7.4, 0.9 M NaCl) and 3×10 min in PBS, PAP pen (Sigma-Aldrich) was used to mark around the section and block solution (5% fetal bovine serum in PBS) was added for 30 min at 4° C. […]

[7] = system: microbiota in diet-induced obese mice; test: interventional treatment of dysbiosis with defensins in diet-induced obese mice (Example 8); type: in vivo
Excerpt: Mice and diets. The experiment elucidates the effect of hBD2 and HD5 on the microbiota in diet-induced obese mice. A run-in period of 13 weeks where mice were fed a very HFD (60% energy from fat) preceded the intervention. Only mice meeting the criteria of a minimum of 12 gram weight gain (approximately 50% of initial bodyweight) during the run-in period were included in the final analyses. […] They were exposed to all experimental tests, but excluded from the analyses.
Treatment regimen. Before the intervention all mice were MR scanned. Cages of mice were allocated to experimental groups based on their fat mass. All subsequent measures were paired with data from the same mouse before the intervention. A LFD (low fat diet) reference group was running in parallel. As controls for the intervention 2 additional groups were included: 1 very HFD and 1 LFD. Experimental mice stayed on the very HFD during the intervention (FIG. 3). The mice were on the experimental diet for 10 weeks. They were co-housed throughout the experiment, 4 mice per cage, 3 cages per group. All tests ran over 3 days, 1 cage per group per day.
Tests. Microbial analyses were carried out to study the microbiota of the intestine.
Longitudinal 16S characterization was conducted on 4 paired samples from 60 mice, 240 samples in total. Each mouse was sampled prior to diet change, 1 week post diet change, 4 weeks post diet change and at termination, thus ensuring a thorough characterization of the faecal microbiota as a result of defensin treatment.

[8] = system: acute graft versus host disease following stem cell transplantation; test: prophylactic oral HD5 or hBD-2 in murine model of acute graft versus host disease (Example 15); type: in vivo, BALB/c mice
Protocol: To determine and assess the efficacy of prophylactic treatment with oral HD5 in a murine model of acute graft versus host disease following stem cell transplantation.
Treatment regime: 22 female BALB/c mice were irradiated with 4.5 Gy (2×498 sec) at intervals of at least 4 hours on day 0. Bone marrow was harvested: hind limbs harvested from 2 female WT C57BL/6 mice aseptically. Skeletal muscle was removed and epiphysis cut away. Lumen of bone flushed with PBS and cells pelleted and taken up. Harvest of T-cells: spleens from 2 female WT C57BL/6 mice were meshed through a […] cell strainer into a PBS filled dish. Cells were taken up in PBS and transferred into a 50 mL falcon tube and spun down. Cells were taken up in 1 mL PBS and 20 μL of CD4 microbead+20 μL CD8 microbeads per spleen added for incubation for 20 min at 4 degrees C. Cells were washed with PBS and applied to MACS separation in order to positively select CD4+ and CD8+ cells. Positively selected T-cells were counted and taken up. Transplantation: directly after the second irradiation, all WT BALB/c recipient mice were injected with 5×1.000.000 BM cells (50 μL) i.v. into the retroorbital venous plexus under isoflurane anesthesia. 22 BALB/c mice were treated with 1.2 mg of HD5/kg BW/day; 1.2 mg of hBD-2/kg BW/day or 100 μL of PBS per day vial oral gavage from day 0-10.
Survival was monitored for 60 days.

[9] = HFD plus HD5, after dietary intervention

**Q.** What does the source list for `C[C@@H]1C[C@H]2[C@@H]3CCC4=CC(=O)C=C[C@]4(C)[C@@]3(F)[C@@H](O)C[C@]2(C)[C@@]1(O)C(=O)CO` [Dexamethasone, reference compound]?
**A.** macrophage counts in BALF [1]: failed to inhibit; neutrophil counts in BALF [1]: failed to inhibit

**Q.** How did the histological score [2] turn out when `C[C@]12C=CC(=O)C=C1CC[C@@H]1[C@@H]2[C@@H](O)C[C@@]2(C)[C@H]1CC[C@]2(O)C(=O)CO` [Prednisolone, reference compound] was run?
**A.** Its histological score is “statistically significant effect on histological score”.

**Q.** And the histological score [3]?
**A.** The histological score was “highly statistically significant clinical effect on histological score”.

**Q.** Enbrel [reference compound] was tested. Which myeloperoxidase activity ([4]; colon, day 95) did it give?
**A.** Its myeloperoxidase activity is “statistically significant and similar effect”.

**Q.** And the “clinical score (body weight loss, stool consistency, presence of blood per rectum)” value [4]?
**A.** Its value is “statistically significant and similar effect on clinical score”.

**Q.** And the colon weight ([4]; day 95)?
**A.** Its colon weight is “statistically significant and similar effect on colon weight”.

**Q.** Which “microbial presence and abundance (unifrac analysis)” value ([5]; prophylactic oral defensins in high fat diet) does the source give for “human intestinal alpha defensin 5 (ATCYCRTGRCATRESLSGVCEISGRLYRLCCR; listed as Homo sapiens) [HD5]” here?
**A.** The value was “affected primarily the microbial abundance”.

**Q.** And the “abundance of Allobaculum” value ([5]; small intestine, prophylaxis with HD5)?
**A.** The value was “statistically significant increase of abundance of Allobaculum”.

**Q.** What about the “lysis zone, distance between intestinal wall and bacterial population” value [6] of the same compound?
**A.** Its value is “profound effect on the distance”.

**Q.** And the fat percentage ([7]; HFD plus HD5, 4 weeks after dietary change, versus HFD control)?
**A.** The fat percentage was “significantly lower fat percentage”.

**Q.** What about the fat percentage [7, 9] of the same compound?
**A.** The fat percentage was “tendency of decreasing fat percentage”.

**Q.** And the weight gain [7, 9]?
**A.** Its weight gain is “gained significantly less weight than the HFD control”.

**Q.** What about the “abundance of Alloprevotella” value ([7]; colon) of the same compound?
**A.** The value was “increased the abundance of Alloprevotella statistically significantly”.

**Q.** What about the “relative abundance of Bifidobacteriaceae” value ([7]; small intestine) of the same compound?
**A.** The value was “trend towards HD5 increasing the abundance”.

**Q.** What about the mortality ([8]; FIG. 58, oral treatment for 10 days from day of stem cell transplantation) of the same compound?
**A.** Its mortality is “significant reduction of mortality”.

**Q.** What about the “treated animals that had died by day 60” value ([8]; oral 1.2 mg/kg/day day 0-10, six out of eight PBS mice died) of the same compound?
**A.** Its value is 2 out of 8.
